From US9682931B2, “Aryloyl(oxy or amino)pentafluorosulfanylbenzene compound, pharmaceutically acceptable salt thereof, and prodrugs thereof” (UBE INDUSTRIES, LTD., priority 2013, dated 2017)

Key:
Topoisomerase I = molecular target: T1, Topoisomerase I (Homo sapiens, UniProt P11387); test: Topoisomerase I assay; format: biochemical; set-up: key to Inhibitory activity Topoisomerase I: ∘: Inhibitory activity is present; Δ: Weak inhibitory activity is present; x: No inhibitory activity is present
T1 sequence (P11387 1-765): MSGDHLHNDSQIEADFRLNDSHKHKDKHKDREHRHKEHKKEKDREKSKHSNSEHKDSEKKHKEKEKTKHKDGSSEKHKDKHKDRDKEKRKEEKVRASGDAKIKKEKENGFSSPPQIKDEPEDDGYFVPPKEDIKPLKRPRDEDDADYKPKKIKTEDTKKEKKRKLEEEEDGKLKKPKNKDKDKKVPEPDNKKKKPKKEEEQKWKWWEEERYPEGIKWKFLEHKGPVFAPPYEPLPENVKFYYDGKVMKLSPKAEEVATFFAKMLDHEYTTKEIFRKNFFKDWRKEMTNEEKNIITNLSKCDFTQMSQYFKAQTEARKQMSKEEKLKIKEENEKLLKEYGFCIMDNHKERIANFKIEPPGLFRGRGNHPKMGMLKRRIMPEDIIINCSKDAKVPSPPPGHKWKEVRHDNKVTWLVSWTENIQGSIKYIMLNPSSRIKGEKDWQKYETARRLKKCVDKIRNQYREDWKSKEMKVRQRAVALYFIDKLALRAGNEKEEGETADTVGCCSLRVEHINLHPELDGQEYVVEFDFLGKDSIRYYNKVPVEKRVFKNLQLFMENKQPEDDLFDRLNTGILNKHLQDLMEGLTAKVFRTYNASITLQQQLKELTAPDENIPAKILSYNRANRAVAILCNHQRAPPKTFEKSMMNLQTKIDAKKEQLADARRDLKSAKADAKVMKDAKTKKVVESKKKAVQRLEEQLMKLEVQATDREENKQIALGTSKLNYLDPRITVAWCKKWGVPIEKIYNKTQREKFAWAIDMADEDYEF
Description: (§1) The inhibitory action of a test substance (Compound 3) on Topoisomerase I and Topoisomerase II was examined.
Topoisomerase I (4 units) was subjected to the following assay performed in the assay conditions, which were determined by a preliminary examination, for a reaction time of 2 hours.
(1) An assay solution was prepared in accordance with the following table.

Topoisomerase II = molecular target: T2, Topoisomerase II (Homo sapiens, UniProt P11388); test: Topoisomerase II assay; format: biochemical; set-up: key to Inhibitory activity Topoisomerase II: ∘: Inhibitory activity is present; Δ: Weak inhibitory activity is present; x: No inhibitory activity is present
T2 construct: purchased
T2 sequence (P11388 whole entry): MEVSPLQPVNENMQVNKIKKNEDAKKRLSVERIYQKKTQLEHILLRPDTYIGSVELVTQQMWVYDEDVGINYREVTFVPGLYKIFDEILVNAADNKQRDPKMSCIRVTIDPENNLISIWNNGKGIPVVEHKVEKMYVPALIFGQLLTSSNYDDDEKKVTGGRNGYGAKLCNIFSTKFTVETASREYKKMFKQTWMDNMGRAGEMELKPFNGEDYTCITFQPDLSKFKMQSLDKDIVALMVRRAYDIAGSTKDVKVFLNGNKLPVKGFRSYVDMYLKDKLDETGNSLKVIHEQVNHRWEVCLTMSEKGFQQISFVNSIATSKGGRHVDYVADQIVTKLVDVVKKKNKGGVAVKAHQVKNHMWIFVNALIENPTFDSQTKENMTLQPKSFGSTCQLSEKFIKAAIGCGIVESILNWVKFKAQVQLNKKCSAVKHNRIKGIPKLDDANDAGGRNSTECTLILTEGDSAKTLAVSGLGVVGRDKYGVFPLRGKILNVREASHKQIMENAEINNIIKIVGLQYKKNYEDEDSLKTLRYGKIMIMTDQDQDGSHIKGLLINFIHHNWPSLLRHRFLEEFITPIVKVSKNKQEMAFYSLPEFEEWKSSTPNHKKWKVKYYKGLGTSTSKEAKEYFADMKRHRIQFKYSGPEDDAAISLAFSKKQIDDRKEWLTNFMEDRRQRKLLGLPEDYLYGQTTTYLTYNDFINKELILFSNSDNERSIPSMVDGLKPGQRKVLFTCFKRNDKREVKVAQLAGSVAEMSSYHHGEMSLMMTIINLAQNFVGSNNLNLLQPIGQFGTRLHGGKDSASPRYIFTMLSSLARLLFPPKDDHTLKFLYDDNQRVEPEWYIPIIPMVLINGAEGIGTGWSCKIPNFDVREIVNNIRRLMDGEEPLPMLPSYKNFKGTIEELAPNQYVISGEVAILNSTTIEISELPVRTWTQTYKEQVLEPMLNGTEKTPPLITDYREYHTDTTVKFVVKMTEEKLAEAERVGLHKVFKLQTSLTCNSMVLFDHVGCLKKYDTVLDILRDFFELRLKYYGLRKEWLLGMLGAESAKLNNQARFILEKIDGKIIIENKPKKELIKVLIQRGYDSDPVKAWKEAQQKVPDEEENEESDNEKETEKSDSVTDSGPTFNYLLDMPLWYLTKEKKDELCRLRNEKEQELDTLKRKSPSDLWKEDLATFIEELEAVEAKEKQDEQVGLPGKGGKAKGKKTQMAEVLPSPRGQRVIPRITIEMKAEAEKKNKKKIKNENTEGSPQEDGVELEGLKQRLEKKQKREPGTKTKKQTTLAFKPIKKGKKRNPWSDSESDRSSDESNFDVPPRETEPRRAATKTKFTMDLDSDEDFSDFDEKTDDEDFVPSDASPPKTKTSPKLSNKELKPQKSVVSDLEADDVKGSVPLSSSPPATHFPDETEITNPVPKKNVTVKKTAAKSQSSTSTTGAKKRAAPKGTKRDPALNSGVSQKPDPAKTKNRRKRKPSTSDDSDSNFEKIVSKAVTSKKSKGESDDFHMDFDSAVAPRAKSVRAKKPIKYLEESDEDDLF
Description: as §1
2. Topoisomerase II Assay
Assay was performed in accordance with the attachment to Topoisomerase II Assay Kit, as follows.
(1) 10×Topo II Incomplete Assay A and 10×ATP Buffer B were mixed in equal amounts to prepare 5× Complete Assay Buffer (prepared when used).
(2) Assay solution was prepared in accordance with the following table.
(3) Incubated at 37° C. for 30 minutes (4) 5 μl of 5× Stop Buffer/gel loading dye was added (5) 1 μl of 1.3 mg/mL protease K solution (prepared with distilled water) was added (final concentration of protease K is 50 μg/mL) (6) Incubated at 37° C. for 20 minute (7) Total amount was applied to 1% agarose gel (containing EtBr) and analyzed by electrophoresis using a single concentration TAE buffer (prepared with distilled water). (8) After electrophoresis, the 1% agarose gel was stained with 0.5 μg/mL EtBr solution (prepared with single concentration TAE buffer) (9) Irradiated with UV ray and photographed.

Which “Topoisomerase I inhibitory activity” value (Topoisomerase I; 500 μg/mL) does the source give for `O=C(Nc1ccc(S(F)(F)(F)(F)F)cc1)c1cc(O)c(O)c(O)c1` [Compound 3, 4-(3,4,5-trihydroxybenzoylamino)pentafluorosulfanylbenzene] here?
The value was “inhibitory activity was confirmed”.

What about the “Inhibitory activity Topoisomerase I” value (Topoisomerase I; final concentration 0.5 μg/mL) of the same compound?
The value was “x”.

And the “Inhibitory activity Topoisomerase I” value (Topoisomerase I; final concentration 5 μg/mL)?
Its value is “x”.

What about the “Inhibitory activity Topoisomerase I” value (Topoisomerase I; final concentration 50 μg/mL) of the same compound?
Its value is “x”.

And the “Inhibitory activity Topoisomerase I” value (Topoisomerase I; final concentration 500 μg/mL)?
Its value is “∘”.

And the “Topoisomerase II inhibitory activity” value (Topoisomerase II; 5, 50 and 500 μg/mL)?
The value was “inhibitory activity was observed”.

What about the “Inhibitory activity Topoisomerase II” value (Topoisomerase II; final concentration 0.5 μg/mL) of the same compound?
The value was “x”.

What about the “Inhibitory activity Topoisomerase II” value (Topoisomerase II; final concentration 5 μg/mL) of the same compound?
The value was “∘”.

And the “Inhibitory activity Topoisomerase II” value (Topoisomerase II; final concentration 50 μg/mL)?
Its value is “∘”.

And the “Inhibitory activity Topoisomerase II” value (Topoisomerase II; final concentration 500 μg/mL)?
Its value is “∘”.
